Experimental data: patent publication US12661410B2, “Compounds for targeted degradation of RET” (C4 Therapeutics, Inc., priority 2020, dated 2026)
Substitutions are numbered along the chain they refer to. Like-named read-outs stand apart in the source and are kept apart here.

What was measured:
RET(KD: 658-1114 G810R) = target: T1, RET(KD: 658-1114 G810R) (Homo sapiens, UniProt P07949, G810R); experiment: HiBiT-Degradation, RET G810R degradation assay (Nano-Glo HiBiT Lytic), 293T.165 cells; type: cell-based; conditions: for Emax / DC50: 6.0 hours; for DC50: read-out: 293T.165 RET(KD: 658-1114 G810R) 6.0 hours (DC50)
T1 construct: 658-1114; expressed in transfected cells; host or cells: 293T.165 (293T cells, generated in-house)
T1 sequence (P07949 658-1114 G810R): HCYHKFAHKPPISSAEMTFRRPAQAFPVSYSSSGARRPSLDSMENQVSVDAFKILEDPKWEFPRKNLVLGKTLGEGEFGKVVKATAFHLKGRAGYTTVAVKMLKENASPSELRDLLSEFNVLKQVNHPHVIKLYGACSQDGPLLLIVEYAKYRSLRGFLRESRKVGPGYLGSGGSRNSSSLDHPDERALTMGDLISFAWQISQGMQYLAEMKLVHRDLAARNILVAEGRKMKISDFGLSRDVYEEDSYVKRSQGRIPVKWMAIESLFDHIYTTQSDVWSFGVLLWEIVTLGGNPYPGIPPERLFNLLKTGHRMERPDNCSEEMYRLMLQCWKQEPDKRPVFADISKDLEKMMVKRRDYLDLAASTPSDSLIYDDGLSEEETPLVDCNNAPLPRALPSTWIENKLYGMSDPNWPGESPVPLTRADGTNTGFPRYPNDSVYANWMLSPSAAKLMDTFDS
Procedure, shortened: (§1)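 Luminescence readout of HiBiT-tagged RET kinase domain remaining after 6 h compound exposure. Cells: 293T.144 (wild type) or 293T.165 (G810R), 11 half-log doses up to 10 μM, duplicates. DC50 and Emax as % remaining protein taken from curve fits.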

RET (658-1114) = target: T2, RET (658-1114) (Homo sapiens, UniProt P07949); experiment: HiBiT-Degradation, RET wild-type degradation assay (Nano-Glo HiBiT Lytic), 293T.144 cells; type: cell-based; conditions: for Emax / DC50: 6.0 hours
T2 construct: 658-1114; expressed in transfected cells; host or cells: 293T.144 (293T cells, generated in-house)
T2 sequence (P07949 658-1114): T1 sequence (P07949 658-1114 G810R) with R153G
Procedure, shortened: as §1

[1] = % remaining protein, read-out: 293T.165 RET(KD: 658-1114 G810R) 6.0 hours (Emax)
[2] = half-maximal degradation concentration
[3] = % remaining protein, read-out: 293T.144 RET (658-1114) 6.0 hours (Emax)
[4] = half-maximal degradation concentration, read-out: 293T.144 RET (658-1114) 6.0 hours (DC50)

| SMILES | 293T.165 RET(KD: 658-1114 G810R) 6.0 hours (IP) [nM] (RET(KD: 658-1114 G810R)) | Emax (RET(KD: 658-1114 G810R); [1]) | DC50 (RET(KD: 658-1114 G810R); [2]) | 293T.144 RET (658-1114) 6.0 hours (IP) [nM] (RET (658-1114)) | Emax (RET (658-1114); [3]) | DC50 (RET (658-1114); [4]) | HiBiT-Degradation 293T.165 RET(KD: 658-1114 G810R) 6.0 hours (IP) [nM] (RET(KD: 658-1114 G810R); RET G810R) | Emax (RET(KD: 658-1114 G810R); RET G810R, read-out: HiBiT-Degradation 293T.165 RET(KD: 658-1114 G810R) 6.0 hours (Emax)) | HiBiT-Degradation 293T.144 RET (658-1114) 6.0 hours (IP) [nM] (RET (658-1114); RET wild-type) | DC50 (RET (658-1114); RET wild-type, read-out: HiBiT-Degradation 293T.144 RET (658-1114) 6.0 hours (DC50)) | Emax (RET (658-1114); RET wild-type, read-out: HiBiT-Degradation 293T.144 RET (658-1114) 6.0 hours (Emax)) | 293T.165 RET(KD: 658-1114 G810R) 6.0 hours (Emax) (RET(KD: 658-1114 G810R); HiBiT-Degradation) | 293T.165 RET(KD: 658-1114 G810R) 6.0 hours (IP) [nM] (RET(KD: 658-1114 G810R); HiBiT-Degradation) | DC50 (RET(KD: 658-1114 G810R); HiBiT-Degradation) | 293T.144 RET (658-1114) 6.0 hours (IP) [nM] (RET (658-1114); HiBiT-Degradation) | DC50 (RET (658-1114); HiBiT-Degradation, read-out: 293T.144 RET (658-1114) 6.0 hours (DC50)) | Emax (RET (658-1114); HiBiT-Degradation, read-out: 293T.144 RET (658-1114) 6.0 hours (Emax)) |
| --- | --- | --- | --- | --- | --- | --- | --- | --- | --- | --- | --- | --- | --- | --- | --- | --- | --- |
| CCC1(C(=O)NC(C)C)CCN(c2ccc(-c3nc(-c4cnn(C5CCN(C(=O)CC6(OC)CCN(c7ccc(NC8CCC(=O)NC8=O)cc7F)CC6)CC5)c4)cn4ncc(C#N)c34)cn2)CC1 (centres unmarked) [Compound 92, 1-[5-[3-cyano-6-[1-[1-[2-[1-[4-[(2,6-dioxo-3-piperidyl)amino]-2-fluoro-phenyl]-4-methoxy-4-piperidyl]acetyl]-4-piperidyl]pyrazol-4-yl]pyrazolo[1,5-a]pyrazin-4-yl]-2-pyridyl]-4-ethyl-N-isopropyl-piperidine-4-carboxamide] | ++++ (<50 nM = ++++) | < 30% | < 100 nM | ++++ (<50 nM = ++++) | < 30% | < 50 nM | – | – | – | – | – | – | – | – | – | – | – |
| N#Cc1cnn2cc(-c3cnn([C@H]4CC[C@H](N5CCC(c6ccc(N[C@@H]7CCC(=O)NC7=O)cc6F)CC5)CC4)c3)nc(-c3ccc(N4CCC5(CC4)OCc4cccnc45)nc3)c12 (relative stereo) [Compound 149, 6-[1-[4-[4-[2-fluoro-4-[[rac-(3R)-2,6-dioxo-3-piperidyl]amino]phenyl]-1-piperidyl]cyclohexyl]pyrazol-4-yl]-4-(6-spiro[5H-furo[3,4-b]pyridine-7,4′-piperidine]-1′-yl-3-pyridyl)pyrazolo[1,5-a]pyrazine-3-carbonitrile] | ++++ (<50 nM = ++++) | < 30% | < 50 nM | ++++ (<50 nM = ++++) | < 30% | < 50 nM | – | – | – | – | – | – | – | – | – | – | – |
| COCC1(Cc2ccccn2)CCN(c2ccc(-c3nc(-c4cnn(C5CCN(C(=O)CC6(O)CCN(c7ccc(NC8CCC(=O)NC8=O)cc7F)CC6)CC5)c4)cn4ncc(C#N)c34)cn2)CC1 (centres unmarked) [Compound 114, 6-[1-[1-[2-[1-[4-[(2,6-dioxo-3-piperidyl)amino]-2-fluoro-phenyl]-4-hydroxy-4-piperidyl]acetyl]-4-piperidyl]pyrazol-4-yl]-4-[6-[4-(methoxymethyl)-4-(2-pyridylmethyl)-1-piperidyl]-3-pyridyl]pyrazolo[1,5-a]pyrazine-3-carbonitrile] | ++++ (<50 nM = ++++) | < 30% | < 50 nM | ++++ (<50 nM = ++++) | < 30% | < 50 nM | – | – | – | – | – | – | – | – | – | – | – |
| N#Cc1cnn2cc(-c3cnn(C4CCN(C(=O)CC5(O)CCN(c6ccc(NC7CCC(=O)NC7=O)cc6F)CC5)CC4)c3)cc(-c3ccc(N4CCC(c5cccc(O)c5)CC4)nc3)c12 (centres unmarked) [Compound 198, 6-[1-[1-[2-[1-[4-[(2,6-dioxo-3-piperidyl)amino]-2-fluoro-phenyl]-4-hydroxy-4-piperidyl]acetyl]-4-piperidyl]pyrazol-4-yl]-4-[6-[4-(3-hydroxyphenyl)-1-piperidyl]-3-pyridyl]pyrazolo[1,5-a]pyridine-3-carbonitrile] | ++++ (<50 nM = ++++) | < 30% | < 50 nM | ++++ (<50 nM = ++++) | < 30% | < 50 nM | – | – | – | – | – | – | – | – | – | – | – |
| CCC1(C(=O)NC(C)C)CCN(c2ccc(-c3cc(-c4cnn([C@H]5CC[C@H](N6CCC(c7ccc(NC8CCC(=O)NC8=O)cc7F)CC6)CC5)c4)cn4ncc(C#N)c34)cn2)CC1 (single isomer, unassigned) [Compound 87, 1-(5-(3-cyano-6-(1-((1r, 4r)-4-(4-(4-((2,6-dioxopiperidin-3-yl)amino)-2-fluorophenyl)piperidin-1-yl)cyclohexyl)-1H-pyrazol-4-yl)pyrazolo[1,5-a]pyridin-4-yl)pyridin-2-yl)-4-ethyl-N-isopropylpiperidine-4-carboxamide] | – | < 30% | – | – | – | – | ++++ (< 50 nM = ++++) | < 30% | ++++ (< 50 nM = ++++) | < 50 nM | < 30% | – | – | – | – | – | – |
| CCC1(c2ncccn2)CCN(c2ccc(-c3nc(-c4cnn(C5CCN(C(=O)CC6(O)CCN(c7ccc(NC8CCC(=O)NC8=O)cc7F)CC6)CC5)c4)cn4ncc(C#N)c34)cn2)CC1 (centres unmarked) [Compound 105, 6-[1-[1-[2-[1-[4-[(2,6-dioxo-3-piperidyl)amino]-2-fluoro-phenyl]-4-hydroxy-4-piperidyl]acetyl]-4-piperidyl]pyrazol-4-yl]-4-[6-(4-ethyl-4-pyrimidin-2-yl-1-piperidyl)-3-pyridyl]pyrazolo[1,5-a]pyrazine-3-carbonitrile] | ++++ (<50 nM = ++++) | < 50% | < 50 nM | ++++ (<50 nM = ++++) | < 30% | < 50 nM | – | – | – | – | – | – | – | – | – | – | – |
| CC(C)(C)NC(=O)C1(C)CCN(c2ccc(-c3cc(-c4ccc(N5CCN(C(=O)CN6CCC(c7ccc(NC8CCC(=O)NC8=O)cc7F)CC6)CC5)cc4)cn4ncc(C#N)c34)cn2)CC1 (centres unmarked) [Compound 25, N-(tert-butyl)-1-(5-(3-cyano-6-(4-(4-(2-(4-(4-((2,6-dioxopiperidin-3-yl)amino)-2-fluorophenyl)piperidin-1-yl)acetyl)piperazin-1-yl)phenyl)pyrazolo[1,5-a]pyridin-4-yl)pyridin-2-yl)-4-methylpiperidine-4-carboxamide] | – | < 50% | < 100 nM | – | – | – | – | – | – | – | – | +++ (<50% = +++) | ++++ (< 50 nM = ++++) | < 100 nM | ++++ (< 50 nM = ++++) | < 50 nM | < 30% |
| N#Cc1cnn2cc(-c3cnn(C4CCN(C(=O)CC5(O)CCN(c6ccc(NC7CCC(=O)NC7=O)cc6F)CC5)CC4)c3)nc(-c3ccc(N4CC5CC(C4)N5Cc4ccccc4)nc3)c12 (centres unmarked) [Compound 176, 4-(6-(6-benzyl-3,6-diazabicyclo[3.1.1]heptan-3-yl)pyridin-3-yl)-6-(1-(1-(2-(1-(4-((2,6-dioxopiperidin-3-yl)amino)-2-fluorophenyl)-4-hydroxypiperidin-4-yl)acetyl)piperidin-4-yl)-1H-pyrazol-4-yl)pyrazolo[1,5-a]pyrazine-3-carbonitrile] | ++++ (<50 nM = ++++) | < 30% | < 50 nM | ++++ (<50 nM = ++++) | < 30% | < 50 nM | – | – | – | – | – | – | – | – | – | – | – |
| CCC1(C(=O)NC2CCC2)CCN(c2ccc(-c3nc(-c4cnn([C@H]5C[C@](F)(CN6CCN(c7ccc(N[C@H]8CCC(=O)NC8=O)cc7F)CC6)C5)c4)cn4ncc(C#N)c34)cn2)CC1 [Compound 186, 1-[5-[3-cyano-6-[1-[3-[[4-[4-[[(3S)-2,6-dioxo-3-piperidyl]amino]-2-fluoro-phenyl]piperazin-1-yl]methyl]-3-fluoro-cyclobutyl]pyrazol-4-yl]pyrazolo[1,5-a]pyrazin-4-yl]-2-pyridyl]-N-cyclobutyl-4-ethyl-piperidine-4-carboxamide] | ++++ (<50 nM = ++++) | < 50% | < 50 nM | ++++ (<50 nM = ++++) | < 50% | < 50 nM | – | – | – | – | – | – | – | – | – | – | – |
